According to patent US20190031717A1, “MULTI-FUNCTIONAL FUSION POLYPEPTIDE, PREPARATION METHOD THEREOF, AND APPLICATION OF SAME” (NANJING ANJI BIOLOGICAL TECHNOLOGY CO., LTD, priority 2016, published 2019):

Columns and labels:
Small Cell Lung Cancer = assay: MTT assay, lung cancer tumor cells; assay type: cell-based, human; design: concentration or dose not given beside the values; details: 48 h, mean ± SD
Procedure: (§1) The inhibition of the growth of human lung cancer tumor cells by the polypeptide of the present invention was examined by MTT assay. The lung cancer tumor cells were cultured in a 37° C., 5% (volume fraction) CO2 incubator to a density of 90% or more, and collected by trypsinization. The cells were resuspended in the culture medium and counted under a microscope to adjust the cell concentration to 2.0×10^4 cells/mL, the cell suspension was inoculated into a 96-well plate at 100 μL per well, and cultured overnight at 37° C. in a 5% (volume fraction) CO2 incubator. After the cells were completely adhered, the polypeptide of the present invention was added as a drug-administered group, and a culture solution containing no drug was used as a blank control group, and the culture solution was diluted to each predetermined concentration. Each dilution was separately added to a 96-well plate at 100 μL per well and incubated for 48 h at 37° C. in a 5% (volume fraction) CO2 incubator. 20 μL of 5 mg/mL MTT was added to each well of a 96-well plate, and incubation was continued for 4 hours. The medium was aspirated, and the cells were dissolved in 100 μL of DMSO per well. The absorbance was measured by a microplate reader at a detection wavelength of 570 nm and a reference wavelength of 630 nm, and the growth inhibition rate was calculated as follows: tumor growth inhibition rate (%)=(1−administered group absorbance value/unadministered group absorbance value)×100%, and the experiment was repeated 3 times independently. The results obtained by the test were expressed as mean±standard deviation. The results in Table 6 indicate that the polypeptides of the present invention have a good inhibitory effect on proliferation of a variety of human lung cancer tumors (FIG. 5).

Large cell lung cancer = assay: MTT assay, lung cancer tumor cells; assay type: cell-based, human; design: concentration or dose not given beside the values; details: 48 h, mean ± SD
Procedure: as §1

Adenocarcinoma = assay: MTT assay, lung cancer tumor cells; assay type: cell-based, human; design: concentration or dose not given beside the values; details: 48 h, mean ± SD
Procedure: as §1

Adenosquamous carcinoma = assay: MTT assay, lung cancer tumor cells; assay type: cell-based, human; design: concentration or dose not given beside the values; details: 48 h, mean ± SD
Procedure: as §1

[1] = system: Non-small cell lung cancer; assay: MTT assay, lung cancer tumor cells; assay type: cell-based, human; design: concentration or dose not given beside the values; details: 48 h, mean ± SD
Procedure: as §1

Squamous cell carcinoma = assay: MTT assay, lung cancer tumor cells; assay type: cell-based, human; design: concentration or dose not given beside the values; details: 48 h, mean ± SD
Procedure: as §1

Breast cancer = assay: MTT assay, tumor cells; assay type: cell-based, human; design: concentration or dose not given beside the values; details: 48 hours, mean ± SD
Procedure: (§2) A variety of human tumor cells were cultured in a 37° C., 5% (volume fraction) CO2 incubator to a density of 90% or more, collected by trypsinization, resuspended in a culture medium and counted under a microscope, and the cells were harvested. The concentration was adjusted to 2.0×10^4 cells/mL, the cell suspension was inoculated into a 96-well plate at 100 μL per well and cultured overnight at 37° C. in a 5% (volume fraction) CO2 incubator. After the cells were completely adhered, the polypeptides of the present invention were added as drug-administered groups, and a culture solution containing no drug was used as a blank control group, and the culture solution was diluted to each predetermined concentration. Each dilution was separately added to a 96-well plate at 100 μL per well and incubated for 48 hours at 37° C. in a 5% (volume fraction) CO2 incubator. 20 μL of 5 mg/mL MTT was added to each well of a 96-well plate and incubation was continued for 4 h. The medium was aspirated and dissolved in 100 μL of DMSO per well. The absorbance was measured with a microplate reader at a detection wavelength of 570 nm and a reference wavelength of 630 nm, and the growth inhibition rate was calculated as follows: tumor growth inhibition rate (%)=(1−absorbance value of the administered group/unadministered group absorbance value)×100%, and the experiment was repeated 3 times independently. The results obtained from the test were expressed as mean±standard deviation, and the tumor growth inhibition rate of the unadministered group was 0. The results in Table 7 indicate that the polypeptides of the present invention have a significant inhibitory effect on the growth of various tumors (FIG. 6).

Ovarian cancer = assay: MTT assay, tumor cells; assay type: cell-based, human; design: concentration or dose not given beside the values; details: 48 hours, mean ± SD
Procedure: as §2

Melanoma = assay: MTT assay, tumor cells; assay type: cell-based, human; design: concentration or dose not given beside the values; details: 48 hours, mean ± SD
Procedure: as §2

Brain tumor = assay: MTT assay, tumor cells; assay type: cell-based, human; design: concentration or dose not given beside the values; details: 48 hours, mean ± SD
Procedure: as §2

Liver cancer = assay: MTT assay, tumor cells; assay type: cell-based, human; design: concentration or dose not given beside the values; details: 48 hours, mean ± SD
Procedure: as §2

Colorectal cancer = assay: MTT assay, tumor cells; assay type: cell-based, human; design: concentration or dose not given beside the values; details: 48 hours, mean ± SD
Procedure: as §2

Gastric cancer = assay: MTT assay, tumor cells; assay type: cell-based, human; design: concentration or dose not given beside the values; details: 48 hours, mean ± SD
Procedure: as §2

Cervical cancer = assay: MTT assay, tumor cells; assay type: cell-based, human; design: concentration or dose not given beside the values; details: 48 hours, mean ± SD
Procedure: as §2

Pancreatic cancer = assay: MTT assay, tumor cells; assay type: cell-based, human; design: concentration or dose not given beside the values; details: 48 hours, mean ± SD
Procedure: as §2

Uterine cancer = assay: MTT assay, tumor cells; assay type: cell-based, human; design: concentration or dose not given beside the values; details: 48 hours, mean ± SD
Procedure: as §2

Hemangioma = assay: MTT assay, tumor cells; assay type: cell-based, human; design: concentration or dose not given beside the values; details: 48 hours, mean ± SD
Procedure: as §2

Head and neck cancer = assay: MTT assay, tumor cells; assay type: cell-based, human; design: concentration or dose not given beside the values; details: 48 hours, mean ± SD
Procedure: as §2

Kidney cancer = assay: MTT assay, tumor cells; assay type: cell-based, human; design: concentration or dose not given beside the values; details: 48 hours, mean ± SD
Procedure: as §2

Bladder Cancer = assay: MTT assay, tumor cells; assay type: cell-based, human; design: concentration or dose not given beside the values; details: 48 hours, mean ± SD
Procedure: as §2

Esophageal cancer = assay: MTT assay, tumor cells; assay type: cell-based, human; design: concentration or dose not given beside the values; details: 48 hours, mean ± SD
Procedure: as §2

sarcoma = assay: MTT assay, tumor cells; assay type: cell-based, human; design: concentration or dose not given beside the values; details: 48 hours, mean ± SD
Procedure: as §2

Prostate cancer = assay: MTT assay, tumor cells; assay type: cell-based, human; design: concentration or dose not given beside the values; details: 48 hours, mean ± SD
Procedure: as §2

Thyroid cancer = assay: MTT assay, tumor cells; assay type: cell-based, human; design: concentration or dose not given beside the values; details: 48 hours, mean ± SD
Procedure: as §2

Staphylococcal fluid = assay: Mouse pneumonia model, bacterial; assay type: in vivo, BALB/C mice; design: concentration or dose not given beside the values; details: mean ± SD
Procedure: (§3) The mouse pneumonia model was successfully established by the nose-drop method. To build the mouse pneumonia model, BALB/C mice with a body mass of 16-22 g were selected and anesthetized pneumonia chain was prepared after anesthesia with ether on day 0, day 1, and day 2. Staphylococcal fluid, adenovirus concentrate, Mycoplasma pneumoniae, Chlamydia pneumoniae, protozoa, and pneumonia fungi were slowly dripped into the nasal cavity of the mice, so that they enter the tracheobronchial. During the operation process, care was exercised to prevent bacterial fluid from flowing into the esophagus, which leads to inactivation the bacterial fluid. After successful model establishment, the polypeptides of the present invention were administered, and the results were shown in Table 5. […] The results were expressed in average value±standard deviation.

Mycoplasma pneumoniae = assay: Mouse pneumonia model, mycoplasma; assay type: in vivo, BALB/C mice; design: concentration or dose not given beside the values; details: mean ± SD
Procedure: as §3

adenovirus concentrate = assay: Mouse pneumonia model, viral; assay type: in vivo, BALB/C mice; details: mean ± SD
Procedure: as §3

protozoa = assay: Mouse pneumonia model, protozoal; assay type: in vivo, BALB/C mice; design: concentration or dose not given beside the values; details: mean ± SD
Procedure: as §3

Chlamydia pneumoniae = assay: Mouse pneumonia model, chlamydia; assay type: in vivo, BALB/C mice; design: concentration or dose not given beside the values; details: mean ± SD
Procedure: as §3

pneumonia fungi = assay: Mouse pneumonia model, fungal; assay type: in vivo, BALB/C mice; design: concentration or dose not given beside the values; details: mean ± SD
Procedure: as §3

[2] = system: Pneumonia caused by lung infection; assay: Mouse pneumonia model, pneumonia caused by lung infection; assay type: in vivo, BALB/C mice; design: concentration or dose not given beside the values; details: mean ± SD
Procedure: as §3

## CC(=O)O[C@@]12CO[C@@H]1C[C@H](O)[C@@]1(C)C(=O)[C@H](O)C3=C(C)[C@@H](OC(=O)[C@H](O)[C@@H](NC(=O)OC(C)(C)C)c4ccccc4)C[C@@](O)([C@@H](OC(=O)c4ccccc4)[C@H]21)C3(C)C [Docetaxel, reference compound]
Small Cell Lung Cancer
  tumor growth inhibition rate, MTT Assay: 42.16 ± 14.54%
Large cell lung cancer
  tumor growth inhibition rate, MTT Assay: 52.69 ± 16.12%
Adenocarcinoma
  tumor growth inhibition rate, MTT Assay: 52.54 ± 15.12%
Adenosquamous carcinoma
  tumor growth inhibition rate, MTT Assay: 35.87 ± 13.84%
[1]
  tumor growth inhibition rate, MTT Assay: 55.50 ± 19.83%
Squamous cell carcinoma
  tumor growth inhibition rate, MTT Assay: 39.78 ± 10.73%
Breast cancer
  tumor growth inhibition rate, MTT Assay: 61.44 ± 18.58%
Ovarian cancer
  tumor growth inhibition rate, MTT Assay: 60.97 ± 18.44%
Melanoma
  tumor growth inhibition rate, MTT Assay: 38.17 ± 11.54%
Brain tumor
  tumor growth inhibition rate, MTT Assay: 45.90 ± 13.88%
Liver cancer
  tumor growth inhibition rate, MTT Assay: 48.95 ± 14.80%
Colorectal cancer
  tumor growth inhibition rate, MTT Assay: 57.20 ± 17.30%
Gastric cancer
  tumor growth inhibition rate, MTT Assay: 43.57 ± 16.44%
Cervical cancer
  tumor growth inhibition rate, MTT Assay: 50.54 ± 21.82%
Pancreatic cancer
  tumor growth inhibition rate, MTT Assay: 49.42 ± 18.21%
Uterine cancer
  tumor growth inhibition rate, MTT Assay: 52.33 ± 19.09%
Hemangioma
  tumor growth inhibition rate, MTT Assay: 68.47 ± 20.71%
Head and neck cancer
  tumor growth inhibition rate, MTT Assay: 32.59 ± 9.86%
Kidney cancer
  tumor growth inhibition rate, MTT Assay: 40.23 ± 15.44%
Bladder Cancer
  tumor growth inhibition rate, MTT Assay: 34.82 ± 10.53%
Esophageal cancer
  tumor growth inhibition rate, MTT Assay: 44.16 ± 13.36%
sarcoma
  tumor growth inhibition rate, MTT Assay: 44.26 ± 13.39%
Prostate cancer
  tumor growth inhibition rate, MTT Assay: 54.25 ± 19.68%
Thyroid cancer
  tumor growth inhibition rate, MTT Assay: 42.03 ± 12.71%

## Penicillin [reference compound]
Staphylococcal fluid
  Inhibitory Effects on Various Pulmonary Infections: 26.52 ± 11.07%
Mycoplasma pneumoniae
  Inhibitory Effects on Various Pulmonary Infections: 23.91 ± 14.27%
Adenovirus concentrate
  Inhibitory Effects on Various Pulmonary Infections: 35.02 ± 15.58%
protozoa
  Inhibitory Effects on Various Pulmonary Infections: 37.00 ± 20.45%
Chlamydia pneumoniae
  Inhibitory Effects on Various Pulmonary Infections: 28.10 ± 14.99%
Pneumonia fungi
  Inhibitory Effects on Various Pulmonary Infections: 35.13 ± 16.62%
[2]
  Inhibitory Effects on Various Pulmonary Infections: 31.03 ± 18.46%
